{"source": "patent US11154491B2", "about": "“Use of Undaria extract to reduce signs of skin aging” (Kimberly-Clark Worldwide, Inc., priority 2014, dated 2021)", "origin": "cited, not measured here", "system": "3T3-L1 cells", "settings": "literature", "data": [{"substance": "Fucoidan", "values": [{"measurement": "adipogenesis", "value": "inhibit adipogenesis"}]}]}
